# Test system: not listed separately
# Experiment: Stability in mouse liver microsomes assessed as parent compound remaining after 30 mins
# Type: ADME, Microsome
# Details: read-out: Stability
row,SMILES,remaining at 0.5 h [%]
1,CCCCc1nc(C)c(CC(=O)OCC)c(=O)n1Cc1ccc(-c2ccccc2-c2noc(=O)[nH]2)cc1,12.9
2,CCCCc1nc(C2CC2)c(CC(=O)OC(C)C)c(=O)n1Cc1ccc(-c2ccccc2-c2noc(=O)[nH]2)cc1,14
3,[2H]C([2H])(C(=O)OCC)c1c(C)nc(CCCC)n(Cc2ccc(-c3ccccc3-c3noc(=O)[nH]3)cc2)c1=O,78.4
4,CC#CCOC(=O)Cc1c(C)nc(CCCC)n(Cc2ccc(-c3ccccc3-c3noc(=O)[nH]3)cc2)c1=O,18.3

# Test system: not listed separately
# Experiment: Drug level in human liver S9 fraction treated with BR101549
# Type: ADME, subcellular
# Details: not given
row,SMILES,Drug metabolism
1,CCCCc1nc(C(C)C)c(CC(=O)O[C@@H]2O[C@H](C(=O)O)[C@@H](O)[C@H](O)[C@H]2O)c(=O)n1Cc1ccc(-c2ccccc2-c2noc(=O)[nH]2)cc1,Metabolite_Notdetected

# Test system: not listed separately
# Experiment: Drug level in human liver S9 fraction treated with 2-(2-butyl-4-isopropyl-6-oxo-1-((2'-(5-oxo-4,5-dihydro-1,2,4-oxadiazol-3-yl)biphenyl-4-yl)methyl)-1,6-dihydropyrimidin-5-yl)acetic acid
# Type: ADME, subcellular
# Details: not given
row,SMILES,Drug metabolism
1,CCCCc1nc(C(C)C)c(CC(=O)O[C@@H]2O[C@H](C(=O)O)[C@@H](O)[C@H](O)[C@H]2O)c(=O)n1Cc1ccc(-c2ccccc2-c2noc(=O)[nH]2)cc1,Metabolite_Detected

# Test system: not listed separately
# Experiment: Stability in human liver microsomes assessed as parent compound remaining after 30 mins
# Type: ADME, Microsome
# Details: read-out: Stability
row,SMILES,remaining at 0.5 h [%]
1,CCCCc1nc(C)c(CC(=O)OCC)c(=O)n1Cc1ccc(-c2ccccc2-c2noc(=O)[nH]2)cc1,46.6
2,CCCCc1nc(C2CC2)c(CC(=O)OC(C)C)c(=O)n1Cc1ccc(-c2ccccc2-c2noc(=O)[nH]2)cc1,9.9
3,[2H]C([2H])(C(=O)OCC)c1c(C)nc(CCCC)n(Cc2ccc(-c3ccccc3-c3noc(=O)[nH]3)cc2)c1=O,46.5
4,CC#CCOC(=O)Cc1c(C)nc(CCCC)n(Cc2ccc(-c3ccccc3-c3noc(=O)[nH]3)cc2)c1=O,32

# Test system: not listed separately
# Experiment: Drug level in rat liver S9 fraction treated with BR101549
# Type: ADME, subcellular
# Details: not given
row,SMILES,Drug metabolism
1,CCCCc1nc(C(C)C)c(CC(=O)O[C@@H]2O[C@H](C(=O)O)[C@@H](O)[C@H](O)[C@H]2O)c(=O)n1Cc1ccc(-c2ccccc2-c2noc(=O)[nH]2)cc1,Metabolite_Notdetected

# Biological target: T1, Type-1 angiotensin II receptor (Homo sapiens, UniProt P30556)
# T1 sequence (P30556 whole entry): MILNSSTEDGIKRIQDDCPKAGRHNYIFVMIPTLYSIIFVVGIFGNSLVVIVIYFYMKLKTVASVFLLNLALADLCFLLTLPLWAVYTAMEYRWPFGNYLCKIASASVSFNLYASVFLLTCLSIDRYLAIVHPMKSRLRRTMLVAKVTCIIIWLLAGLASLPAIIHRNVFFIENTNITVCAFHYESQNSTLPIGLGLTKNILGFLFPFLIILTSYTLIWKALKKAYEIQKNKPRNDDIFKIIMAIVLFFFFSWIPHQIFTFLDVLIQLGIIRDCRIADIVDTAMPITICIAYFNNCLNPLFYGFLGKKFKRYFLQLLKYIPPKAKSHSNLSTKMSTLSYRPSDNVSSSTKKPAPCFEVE
# Experiment: Antagonist activity at type-1 angiotensin 2 receptor (unknown origin) by calcium mobilizing assay
# Type: functional
# Details: not given
row,SMILES,IC50 [nM]
1,CCCCc1nc(C(C)C)c(CC(=S)N2CCCC2)c(=O)n1Cc1ccc(-c2ccccc2-c2noc(=O)[nH]2)cc1,2.2

# Biological target: T2, Peroxisome proliferator-activated receptor gamma (Homo sapiens, UniProt P37231)
# T2 sequence (P37231 whole entry): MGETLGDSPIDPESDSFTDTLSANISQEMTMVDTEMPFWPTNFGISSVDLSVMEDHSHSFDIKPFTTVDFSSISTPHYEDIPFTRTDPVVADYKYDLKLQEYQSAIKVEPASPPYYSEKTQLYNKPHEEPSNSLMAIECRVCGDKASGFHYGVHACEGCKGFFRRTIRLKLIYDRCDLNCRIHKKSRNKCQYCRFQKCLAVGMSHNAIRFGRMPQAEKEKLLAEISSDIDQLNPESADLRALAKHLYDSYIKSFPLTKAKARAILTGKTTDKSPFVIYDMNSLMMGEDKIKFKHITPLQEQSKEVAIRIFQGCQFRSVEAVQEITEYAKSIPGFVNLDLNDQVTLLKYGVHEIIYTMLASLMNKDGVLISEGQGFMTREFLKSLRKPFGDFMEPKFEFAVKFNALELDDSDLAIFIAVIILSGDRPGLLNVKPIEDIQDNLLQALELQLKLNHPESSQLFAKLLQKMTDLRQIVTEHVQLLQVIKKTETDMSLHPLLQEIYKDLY
# Experiment: Agonist activity at human PPARgamma
# Details: not given
row,SMILES,EC50 [nM]
1,CCCCc1nc(C(C)C)c(CC(=O)OCC(F)(F)F)c(=O)n1Cc1ccc(-c2ccccc2-c2noc(=O)[nH]2)cc1,2780
2,CCCCc1nc(C(C)C)c(CC(=S)N2CCCC2)c(=O)n1Cc1ccc(-c2ccccc2-c2noc(=O)[nH]2)cc1,3100
3,CCCCc1nc(C2CC2)c(CC(=O)OC(C)C)c(=O)n1Cc1ccc(-c2ccccc2-c2noc(=O)[nH]2)cc1,2720
4,CC#CCOC(=O)Cc1c(C)nc(CCCC)n(Cc2ccc(-c3ccccc3-c3noc(=O)[nH]3)cc2)c1=O,2530

# Test system: not listed separately
# Experiment: Drug level in rat liver S9 fraction treated with 2-(2-butyl-4-isopropyl-6-oxo-1-((2'-(5-oxo-4,5-dihydro-1,2,4-oxadiazol-3-yl)biphenyl-4-yl)methyl)-1,6-dihydropyrimidin-5-yl)acetic acid
# Type: ADME, subcellular
# Details: not given
row,SMILES,Drug metabolism
1,CCCCc1nc(C(C)C)c(CC(=O)O[C@@H]2O[C@H](C(=O)O)[C@@H](O)[C@H](O)[C@H]2O)c(=O)n1Cc1ccc(-c2ccccc2-c2noc(=O)[nH]2)cc1,Metabolite_Detected

# Test system: Mus musculus
# Experiment: Antidiabetic activity in db/db mouse assessed as random blood glucose level at 20 mg/kg, po administered once daily for 13 days measured post last dose (reference value: 530 mg/dl)
# Type: functional
# Details: not given
row,SMILES,Activity [mg/dL]
1,CCc1ccc(CCOc2ccc(CC3SC(=O)NC3=O)cc2)nc1 (stereo unspecified) [PIOGLITAZONE],213

# Test system: not listed separately
# Experiment: Drug level in mouse liver S9 fraction treated with BR101549
# Type: ADME, subcellular
# Details: not given
row,SMILES,Drug metabolism
1,CCCCc1nc(C(C)C)c(CC(=O)O[C@@H]2O[C@H](C(=O)O)[C@@H](O)[C@H](O)[C@H]2O)c(=O)n1Cc1ccc(-c2ccccc2-c2noc(=O)[nH]2)cc1,Metabolite_Notdetected

# Test system: not listed separately
# Experiment: Stability in rat liver microsomes assessed as parent compound remaining after 30 mins
# Type: ADME, Microsome
# Details: read-out: Stability
row,SMILES,remaining at 0.5 h [%]
1,CCCCc1nc(C)c(CC(=O)OCC)c(=O)n1Cc1ccc(-c2ccccc2-c2noc(=O)[nH]2)cc1,14.3
2,[2H]C([2H])(C(=O)OCC)c1c(C)nc(CCCC)n(Cc2ccc(-c3ccccc3-c3noc(=O)[nH]3)cc2)c1=O,87.3

# Biological target: T3, Peroxisome proliferator-activated receptor gamma (Homo sapiens) (UniProt P37231)
# T3 sequence (whole entry): T2 sequence (P37231 whole entry)
# Experiment: Agonist activity at human PPARgamma at 1 uM relative to telmisartan
# Details: not given
row,SMILES,fold change (FC)
1,CCCCc1nc(C)c(CC(=O)OCC)c(=O)n1Cc1ccc(-c2ccccc2-c2noc(=O)[nH]2)cc1,0.93

# Same assay, conditions: tested as the 2H-labelled form
row,SMILES,fold change (FC)
1,CCCCc1nc(C)c(CC(=O)OCC)c(=O)n1Cc1ccc(-c2ccccc2-c2noc(=O)[nH]2)cc1,0.82

# Test system: not listed separately
# Experiment: Drug level in mouse liver S9 fraction treated with 2-(2-butyl-4-isopropyl-6-oxo-1-((2'-(5-oxo-4,5-dihydro-1,2,4-oxadiazol-3-yl)biphenyl-4-yl)methyl)-1,6-dihydropyrimidin-5-yl)acetic acid
# Type: ADME, subcellular
# Details: not given
row,SMILES,Drug metabolism
1,CCCCc1nc(C(C)C)c(CC(=O)O[C@@H]2O[C@H](C(=O)O)[C@@H](O)[C@H](O)[C@H]2O)c(=O)n1Cc1ccc(-c2ccccc2-c2noc(=O)[nH]2)cc1,Metabolite_Detected

# Test system: not listed separately
# Experiment: Stability in dog liver microsomes assessed as parent compound remaining after 30 mins
# Type: ADME, Canis lupus familiaris, Microsome
# Details: read-out: Stability
row,SMILES,remaining at 0.5 h [%]
1,CCCCc1nc(C)c(CC(=O)OCC)c(=O)n1Cc1ccc(-c2ccccc2-c2noc(=O)[nH]2)cc1,50.9
2,[2H]C([2H])(C(=O)OCC)c1c(C)nc(CCCC)n(Cc2ccc(-c3ccccc3-c3noc(=O)[nH]3)cc2)c1=O,86.8

# Biological target: T3, Peroxisome proliferator-activated receptor gamma (Homo sapiens)
# Experiment: Agonist activity at human PPARgamma at 1 uM relative to pioglitazone
# Details: not given
row,SMILES,max activation [%]
1,CCCCc1nc(C(C)C)c(CC(=O)OCC(F)(F)F)c(=O)n1Cc1ccc(-c2ccccc2-c2noc(=O)[nH]2)cc1,65
2,CCCCc1nc(C(C)C)c(CC(=S)N2CCCC2)c(=O)n1Cc1ccc(-c2ccccc2-c2noc(=O)[nH]2)cc1,66
3,CCCCc1nc(C2CC2)c(CC(=O)OC(C)C)c(=O)n1Cc1ccc(-c2ccccc2-c2noc(=O)[nH]2)cc1,87
4,CC#CCOC(=O)Cc1c(C)nc(CCCC)n(Cc2ccc(-c3ccccc3-c3noc(=O)[nH]3)cc2)c1=O,99

# Test system: not listed separately
# Experiment: Toxicity in db/db mouse assessed as body weight at 20 mg/kg, po administered once daily for 13 days (reference value: 33.5 g)
# Type: organism-based
# Details: in vivo, 312 h
row,SMILES,Activity [g]
1,CCc1ccc(CCOc2ccc(CC3SC(=O)NC3=O)cc2)nc1 (stereo unspecified) [PIOGLITAZONE],32.3
